Measurements taken from US11713320B2, “5-heteroaryl substituted indazole-3-carboxamides and preparation and use thereof” (BioSplice Therapeutics, Inc., priority 2018, dated 2023).
Values belong to the molecule of their own block, whether it stands above or below them.

Experiments:
[1] = tested on: primary human mesenchymal stem cells (hMSCs); experiment: Tenocyte differentiation assay in hMSCs (SCXA staining); type: cell-based; conditions: given for EC50 of >100 μM; not defined in the method
Source text: Representative compounds were screened using primary human mesenchymal stem cells (hMSCs) to determine their ability to induce tenocyte differentiation (process by which tendon is developed).
Human Mesenchymal Stem Cell Culture: Primary human mesenchymal stem cells (hMSCs) were purchased from Lonza (Walkersville, Md.) and expanded in Mesenchymal Stem Cell Growth Media (Lonza). Cells between passage 3 and 6 were used for the experiments.
Cells were fixed using 4% formaldehyde (Electron Microscopy Sciences), and stained with anti-Sclerasis (anti-SCXA) antibodies (Abgent, San Diego, Calif.) [Webb S., et. al., Retinoic acid receptor signaling preserves tendon stem cell characteristics and prevents spontaneous differentiation in vitro, Stem Cell Research & Therapy 2016, 7:45] overnight at 4° C. […] Number of cells positive for SCXA in each well was quantified using the CellInsight CX5. Data was normalized to the average of 12 DMSO treated wells on the same plate using Dotmatics Studies module. The normalized averages (fold change over DMSO) of 3 replicate wells for each compound concentration were calculated. Due to solubility limitations of some of the compounds, values for higher doses were manually corrected and curve fitting and EC50 determinations were performed using Dotmatics Studies.

[2] = tested on: IL-6; experiment: IL-6 inhibition in LPS-stimulated human PBMCs (HTRF); type: cell-based; conditions: PBMC; for EC50: IL-6, huPBMCs, LPS 50 ng/mL, 22 hours
Procedure: Human Peripheral Blood Mononuclear Cells: Fresh Normal PB MNC (Catalog #PB001, AllCells, Alameda, Calif.) were shipped overnight at 4° C. and resuspended in Roswell Park Memorial Institute (RPMI) 1640 Medium, with GlutaMAX Supplement (Catalog #61870127, ThermoFisher Scientific, Waltham, Mass.) supplemented with 1% Penicillin-Streptomycin (Catalog #15140163, ThermoFisher Scientific, Waltham, Mass.) and 1% fetal bovine serum (FBS) (Catalog #16140089, ThermoFisher Scientific, Waltham, Mass.) assay media.
Compound Screening: Fresh normal human peripheral blood mononuclear cells (huPBMCs) were resuspended in 1% FBS-RPMI assay media with 1% Penicillin-Streptomycin 1% to a cell concentration of 1×10e6 cells/mL. […] 50 ng/mL of Lipopolysaccharides from Escherichia coli 0111:B4 (Catalog #L5293-2ML, Sigma-Aldrich, St. Louis, Mo.) was added after 2 hours and cells were incubated for another 22 hours at 37° C.-5% CO2. After 22 hour incubation, a mixture of anti-IL6 XL665 and anti-IL-6 Cryptate diluted in reconstitution buffer (Catalog #62IL6PEC, Cisbio Inc., Bedford, Mass.) was added to each well. Following incubation for 3 hours at room temperature, Homogeneous Time-Resolved Fluorescence (HTRF) was measured using the Envision (Perkin Elmer, Shelton, Conn.) at 665 nm and […]. The ratio of fluorescence at 665 nm to 620 nm was used as a readout for IL-6 quantification. All samples were processed in duplicate. Readings were normalized to DMSO treated cells and normalized activities were utilized for EC50 calculations. EC50 was determined using software generated by Dotmatics Limited (Windhill Bishops Stortford Herts, UK) using the Levenberg-Marquardt 4 parameter fitting procedure with finite different gradients.

[3] = tested on: SW480 colon carcinoma cells; experiment: Cell viability assay (CellTiter-Glo) in SW480 cells; type: cell-based, human; conditions: four days
Procedure: Representative compounds were screened using the assay procedure to assess the effect on cell viability as described below.
SW480 colon carcinoma cells were transduced with a lentiviral vector expressing luciferase with a human Sp5 promoter consisting of a sequence of eight TCF/LEF binding sites. SW480 cells stably expressing the Sp5-Luc reporter gene and a hygromycin resistance gene were selected by treatment with 150 μg/mL of hygromycin for 7 days. These stably transduced SW480 cells were expanded in cell culture and used for all further screening activities.
For the Cell Viability Assays, the cells were plated at 2,000 cells/well in 384-well plates with a DMEM medium containing 1% fetal bovine serum, and 1% Penicillin-Streptomycin and incubated for […] at 37° C. and 5% CO2. Eight replicates of DMSO-treated cells served as controls and cells treated with compound were performed in duplicate.
After incubation, 10 μL of CellTiter-Glo (Promega) was added to each well allowed to incubate for approximately 12 minutes. This reagent “results in cell lysis and generation of a luminescent signal proportional to the amount of ATP present. The amount of ATP is directly proportional to the number of cells present in culture, in agreement with previous reports. The CellTiter-Glo® Assay generates a “glow-type” luminescent signal, produced by the luciferase reaction (Promega.com)”.

[4] = tested on: Wnt activity (Sp5-Luc reporter, TCF/LEF binding sites) in SW480 colon carcinoma cells; experiment: Screening assay for Wnt activity: Sp5-Luc reporter gene assay in SW480 cells; type: cell-based, human; conditions: 36 to 48 hours
Source text: The screening assay for Wnt activity is described as follows. Reporter cell lines can be generated by stably transducing cancer cell lines (e.g., colon cancer) or primary cells (e.g., IEC-6 intestinal cells) with a lentiviral construct that includes a Wnt-responsive promoter driving expression of the firefly luciferase gene.
SW480 colon carcinoma cells were transduced with a lentiviral vector expressing luciferase with a human Sp5 promoter consisting of a sequence of eight TCF/LEF binding sites. SW480 cells stably expressing the Sp5-Luc reporter gene and a hygromycin resistance gene were selected by treatment with 150 μg/mL of hygromycin for 7 days. These stably transduced SW480 cells were expanded in cell culture and used for all further screening activities. […] For Sp5-Luc reporter gene assays, the cells were plated at 4,000 cells/well in 384-well plates with a DMEM medium containing 1% fetal bovine serum, and 1% Penicillin-Streptomycin and incubated for 36 to 48 hours at 37° C. and 5% CO2. Following incubation, 15 μl of BriteLite Plus luminescence reagent (Perkin Elmer) was added to each well of the 384-well assay plates. The plates were placed on an orbital shaker for 2 min and then luminescence was quantified using the Envision (Perkin Elmer) plate reader. Readings were normalized to DMSO only treated cells, and normalized activities were utilized for EC50 calculations using the dose-response log (inhibitor) vs. response variable slope (four parameters) nonlinear regression feature available in GraphPad Prism 5.0 (or Dotmatics).

[5] = tested on: primary human fibroblasts derived from IPF patients (LL29 cells) treated with TGF-β1; experiment: Inhibition of the fibrotic process: αSMA staining in TGF-β1 treated LL29 fibroblasts; type: cell-based; conditions: % cells positive for αSMA, TGF-β1 20 ng/mL, 4 days
Procedure: Representative compounds were screened using primary human fibroblasts (derived from IPF patients) treated with TGF-β1 to determine their ability to inhibit the fibrotic process.
LL29 cells were plated at 1,500 cells/well in 70 μL/well F12 medium supplemented with 1% Fetal Bovine Serum. […] Wells treated with TGF-β1 and containing DMSO were used as positive control, and cells with only DMSO were negative control. […] Following incubation for 4 days, SYTOX green nucleic acid stain (Life Technologies [Thermo Fisher Scientific]) was added to the wells at a final concentration of 1 μM and incubated at room temperature for 30 min.

percent value in parentheses beside EC50 >100 [1]: (21.2%)
Molecule: 5-(1,2-Dimethyl-1H-imidazol-5-yl)-N-(2-methylthiazol-5-yl)-1H-indazole-3-carboxamide [Compound 139]

Molecule: Cc1ncc(-c2ccc3[nH]nc(C(=O)NC4CCN(CC(C)(C)F)CC4)c3c2)n1C [Compound 42, 5-(1,2-Dimethyl-1H-imidazol-5-yl)-N-(1-(2-fluoro-2-methylpropyl)piperidin-4-yl)-1H-indazole-3-carboxamide]
EC50 [2]: > 10000 nM
inhibition at 10 µM ([2]; read-out: percent inhibition at 10 μM): 10.4%
EC50 ([3]; Homo sapiens, 96 h): > 10000 nM
EC50 ([4]; Homo sapiens): 507 nM
EC50 ([5]; Homo sapiens, Fibroblast, 96 h): 1360 nM

Molecule: C[C@H]1C[C@H](NC(=O)c2n[nH]c3ccc(-c4cnn(C)c4)cc23)CCN1CC(C)(C)F [Compound 44, N-((2S,4R)-1-(2-fluoro-2-methylpropyl)-2-methylpiperidin-4-yl)-5-(1-methyl-1H-pyrazol-4-yl)-1H-indazole-3-carboxamide]
EC50 [2]: 1030 nM
EC50 ([3]; Homo sapiens, 96 h): 1520 nM
EC50 ([4]; Homo sapiens): 279 nM
EC50 ([5]; Homo sapiens, Fibroblast, 96 h): 199 nM

Molecule: O=C(Nc1ccc(F)cc1)c1n[nH]c2ccc(-c3cnc4n3CCNC4)cc12 [Compound 52, N-(4-Fluorophenyl)-5-(5,6,7,8-tetrahydroimidazo[1,2-a]pyrazin-3-yl)-1H-indazole-3-carboxamide]
EC50 ([5]; Homo sapiens, Fibroblast, 96 h): 540 nM

EC50 [3]: > 10000 nM
EC50 [4]: > 10000 nM
Molecule: CC(C)(F)CN1CCC(n2cc(-c3ccc4[nH]nc(C(=O)Nc5ccc(OC(F)F)cc5)c4c3)cn2)CC1 [Compound 61, N-(4-(difluoromethoxy)phenyl)-5-(1-(1-(2-fluoro-2-methylpropyl)piperidin-4-yl)-1H-pyrazol-4-yl)-1H-indazole-3-carboxamide]
EC50 [5]: 9 nM

percent value in parentheses beside EC50 >100 [1]: (2.9%)
Molecule: Cc1ncc(-c2ccc3[nH]nc(C(=O)Nc4ccc(OC5CCN(C)CC5)cc4)c3c2)s1 [Compound 82, N-(4-((1-Methylpiperidin-4-yl)oxy)phenyl)-5-(2-methylthiazol-5-yl)-1H-indazole-3-carboxamide]

percent value in parentheses beside EC50 >100 [1]: (33.0%)
Molecule: Cn1cc(-c2cc(F)c3[nH]nc(C(=O)NC4CCN(CC(F)F)CC4)c3c2)cn1 [Compound 101, N-(1-(2,2-Difluoroethyl)piperidin-4-yl)-7-fluoro-5-(1-methyl-1H-pyrazol-4-yl)-1H-indazole-3-carboxamide]

percent value in parentheses beside EC50 >100 [1]: (13.0%)
Molecule: CN1CCC(Oc2ccc(NC(=O)c3n[nH]c4c(F)cc(-c5cnn(C)c5)cc34)cn2)CC1 [Compound 129, 7-Fluoro-5-(1-methyl-1H-pyrazol-4-yl)-N-(6-((1-methylpiperidin-4-yl)oxy)pyridin-3-yl)-1H-indazole-3-carboxamide]

percent value in parentheses beside EC50 >100 [1]: (23.0%)
Molecule: Cc1cc(NC(=O)c2n[nH]c3ccc(-c4cnn(C5CCN(C)CC5)c4)cc23)sn1 [Compound 143, N-(3-Methylisothiazol-5-yl)-5-(1-(1-methylpiperidin-4-yl)-1H-pyrazol-4-yl)-1H-indazole-3-carboxamide]

percent value in parentheses beside EC50 >100 [1]: (36.0%)
Molecule: CN1CCN(c2cccc(NC(=O)c3n[nH]c4cc(F)c(-c5cnn(C)c5)cc34)c2)CC1 [Compound 149, 6-Fluoro-5-(1-methyl-1H-pyrazol-4-yl)-N-(3-(4-methylpiperazin-1-yl)phenyl)-1H-indazole-3-carboxamide]

percent value in parentheses beside EC50 >100 [1]: (3.5%)
Molecule: CN1CCC(Oc2cccc(NC(=O)c3n[nH]c4cc(F)c(-c5cnn(C)c5)cc34)c2)CC1 [Compound 151, 6-Fluoro-5-(1-methyl-1H-pyrazol-4-yl)-N-(3-((1-methylpiperidin-4-yl)oxy)phenyl)-1H-indazole-3-carboxamide]

percent value in parentheses beside EC50 >100 [1]: (21.0%)
Molecule: Cn1cc(-c2cc3c(C(=O)Nc4cccc(OCCN5CCCC5)c4)n[nH]c3cc2F)cn1 [Compound 154, 6-Fluoro-5-(1-methyl-1H-pyrazol-4-yl)-N-(3-(2-(pyrrolidin-1-yl)ethoxy)phenyl)-1H-indazole-3-carboxamide]
